In assay [1] the test system is Ceutorhynchus obstrictus. The assay is described as follows: Inhibition of emergence of new-generation Ceutorhynchus obstrictus adults from soil harboring Brassica napus L. Ryder plant developed from compound treated seeds at 600 g/L FS measured for 5 weeks relative to lindane. Format: functional.
For assay [2], the system named is Ceutorhynchus obstrictus. The assay is described as follows: Inhibition of Ceutorhynchus obstrictus preimaginal development in Brassica napus L. Ryder pods of plant developed from compound treated seeds assessed as decrease in number of exit holes formed per pod by third-instar larvae at 600 g/L FS. Format: functional, organism-based.
For assay [3], the system named is Contarinia nasturtii. As to the kind of experiment: Inhibition of Contarinia nasturtii larval development in Brassica oleracea L. var italica plant developed from compound pretreated seeds at 4.5 g AI per 100 g seed measured at 4-5 weeks after planting. The assay is classed as functional. More on the design: scale not given: the % may be the effect or the level left.

The test system of assay [4] is Ceutorhynchus obstrictus. As to the kind of experiment: Inhibition of Ceutorhynchus obstrictus preimaginal development in Brassica napus L. Ryder pods of plant developed from compound treated seeds assessed as decrease in number of third-instar larvae at 600 g/L FS by microscopic analysis. The assay is classed as functional, organism-based.
For assay [5], the system named is Ceutorhynchus obstrictus. As to the kind of experiment: Inhibition of Ceutorhynchus obstrictus preimaginal development in Brassica napus L. Ryder pods of plant developed from compound treated seeds assessed as decrease in number of second-instar larvae at 600 g/L FS by microscopic analysis. The assay is classed as functional, organism-based.
In assay [6] the test system is Ceutorhynchus obstrictus. The assay is described as follows: Inhibition of Ceutorhynchus obstrictus preimaginal development in Brassica napus L. Ryder pods of plant developed from compound treated seeds assessed as effect on number of first-instar larvae at 600 g/L FS by microscopic analysis. The assay is classed as functional, organism-based.
Assay [7] concerns Ceutorhynchus obstrictus. The assay is described as follows: Effect on Ceutorhynchus obstrictus oviposition in Brassica napus L. Ryder pods of plant developed from compound treated seeds assessed as number of eggs deposited at 600 g/L FS by microscopic analysis. The assay is classed as functional, organism-based.
The test system of assay [8] is Ceutorhynchus obstrictus. As to the kind of experiment: Inhibition of Ceutorhynchus obstrictus development in canola pods of plant developed from compound treated seeds assessed as decrease in number of exit holes formed by larvae at 0.30 kg AI per 45.36 kg seeds. The assay is classed as functional.
Assay [9] has as its system Ceutorhynchus obstrictus. As to the kind of experiment: Inhibition of Ceutorhynchus obstrictus development in canola pods of plant developed from compound treated seeds assessed as decrease in number of exit holes formed by larvae at 0.23 kg AI per 45.36 kg seeds. Format: functional.
Assay [10] concerns Ceutorhynchus obstrictus. As to the kind of experiment: Inhibition of emergence of new-generation Ceutorhynchus obstrictus adults from soil harboring Brassica napus L. Ryder plant developed from compound treated seeds at 800 g/L FS measured for 5 weeks relative to lindane. Format: functional.
Assay [11] has as its system Ceutorhynchus obstrictus. The assay is described as follows: Inhibition of Ceutorhynchus obstrictus preimaginal development in Brassica napus L. Ryder pods of plant developed from compound treated seeds assessed as decrease in number of exit holes formed per pod by larvae at 800 g/L FS. The assay is classed as functional, organism-based.
Assay [12] relates to Ceutorhynchus obstrictus. The assay is described as follows: Inhibition of Ceutorhynchus obstrictus preimaginal development in Brassica napus L. Ryder pods of plant developed from compound treated seeds assessed as decrease in number of third-instar larvae at 800 g/L FS by microscopic analysis. Format: functional, organism-based.
Assay [13] has as its system Ceutorhynchus obstrictus. The assay is described as follows: Inhibition of Ceutorhynchus obstrictus preimaginal development in Brassica napus L. Ryder pods of plant developed from compound treated seeds assessed as decrease in number of second-instar larvae at 800 g/L FS by microscopic analysis. Format: functional, organism-based.
In assay [14] the test system is Ceutorhynchus obstrictus. As to the kind of experiment: Inhibition of Ceutorhynchus obstrictus preimaginal development in Brassica napus L. Ryder pods of plant developed from compound treated seeds assessed as effect on number of first-instar larvae at 800 g/L FS by microscopic analysis. The assay is classed as functional, organism-based.
Assay [15] has as its system Ceutorhynchus obstrictus. As to the kind of experiment: Effect on Ceutorhynchus obstrictus oviposition in Brassica napus L. Ryder pods of plant developed from compound treated seeds assessed as number of eggs deposited at 800 g/L FS by microscopic analysis. Format: functional, organism-based.
In assay [16] the test system is Ceutorhynchus obstrictus. The assay is described as follows: Inhibition of Ceutorhynchus obstrictus development in canola pods of plant developed from compound treated seeds assessed as decrease in number of exit holes formed by larvae at 0.28 kg AI per 45.36 kg seeds relative to untreated control. Format: functional.
The test system of assay [17] is Ceutorhynchus obstrictus. As to the kind of experiment: Inhibition of Ceutorhynchus obstrictus development in canola pods of plant developed from compound treated seeds assessed as decrease in number of exit holes formed by larvae at 0.28 kg AI per 45.36 kg seeds. Format: functional.
The test system of assay [18] is Ceutorhynchus obstrictus. The assay is described as follows: Inhibition of Ceutorhynchus obstrictus development in canola pods of plant developed from compound treated seeds assessed as decrease in number of exit holes formed by larvae at 0.45 kg AI per 45.36 kg seeds relative to untreated control. The assay is classed as functional.
In assay [19] the test system is Ceutorhynchus obstrictus. As to the kind of experiment: Inhibition of Ceutorhynchus obstrictus development in canola pods of plant developed from compound treated seeds assessed as decrease in number of exit holes formed by larvae at 0.38 kg AI per 45.36 kg seeds relative to untreated control. Format: functional.
For assay [20], the system named is Ceutorhynchus obstrictus. As to the kind of experiment: Inhibition of Ceutorhynchus obstrictus development in canola pods of plant developed from compound treated seeds assessed as decrease in number of exit holes formed by larvae at 0.30 kg AI per 45.36 kg seeds relative to untreated control. Format: functional.
The test system of assay [21] is Ceutorhynchus obstrictus. The assay is described as follows: Inhibition of Ceutorhynchus obstrictus development in canola pods of plant developed from compound treated seeds assessed as decrease in number of exit holes formed by larvae at 0.23 kg AI per 45.36 kg seeds relative to untreated control. The assay is classed as functional.
Assay [22] concerns Ceutorhynchus obstrictus. As to the kind of experiment: Inhibition of Ceutorhynchus obstrictus development in canola pods of plant developed from compound treated seeds assessed as decrease in number of exit holes formed by larvae at 0.45 kg AI per 45.36 kg seeds. Format: functional.
Assay [23] has as its system Ceutorhynchus obstrictus. The assay is described as follows: Inhibition of Ceutorhynchus obstrictus development in canola pods of plant developed from compound treated seeds assessed as decrease in number of exit holes formed by larvae at 0.38 kg AI per 45.36 kg seeds. Format: functional.
In assay [24] the test system is Ceutorhynchus obstrictus. The assay is described as follows: Ratio of compound to imidacloprid for exit holes formed in Brassica napus L. Ryder pod by […] larvae of Ceutorhynchus obstrictus. The assay is classed as functional.
In assay [25] the test system is Ceutorhynchus obstrictus. As to the kind of experiment: Ratio of compound to clothianidin for exit holes formed in Brassica napus L. Ryder pods by Ceutorhynchus obstrictus larvae. The assay is classed as functional.
For assay [26], the system named is Ceutorhynchus obstrictus. As to the kind of experiment: Inhibition of Ceutorhynchus obstrictus preimaginal development in Brassica napus L. Ryder pods of plant developed from compound treated seeds assessed as effect on number of first-instar larvae at 1351 g per 100 kg seeds by microscopic analysis. Format: functional, organism-based.
Assay [27] deals with Ceutorhynchus obstrictus. As to the kind of experiment: Effect on Ceutorhynchus obstrictus oviposition in Brassica napus L. Ryder pods of plant developed from compound treated seeds assessed as number of eggs deposited at 1351 g per 100 kg seeds by microscopic analysis. The assay is classed as functional, organism-based.

Calls of active or inactive are those of the source. The rule behind the calls is not given here.

Take `CN/C(=N\[N+](=O)[O-])NCc1cnc(Cl)s1` [CLOTHIANIDINE]: the “inhibition (INH)” value in assay [1] came to 52.2%. Moreover, the inhibition entry in assay [2], in [4] and in assay [5] was “Active” in each case. Also, the Activity in assay [3] worked out at 100%. Moreover, in assay [6], the inhibition result was “inactive”. Further, in [7], the outcome was inactive.
Take `O=[N+]([O-])/N=C1\NCCN1Cc1ccc(Cl)nc1` [IMIDACLOPRID]: the “inhibition (INH)” value in assay [8] turned out to be 96%; in [9], 88%; in assay [10], 39.4%; in assay [17] it was 100%; in assay [22], 100%; in assay [23], 98%. Further, the inhibition entry in assay [11], in assay [12] and in assay [13] was “Active” throughout. Also, in assay [14], the inhibition entry is “inactive”. Further, the outcome in [15] was inactive. The Activity in assay [3] was determined as 100%. In addition, the “fold change (FC)” value in assay [16] came out at 2.2; in assay [18] it was 2.4; in [19] it was 2; in [20], 2.1; in [21], 1.9.
Consider `Cl[C@H]1[C@H](Cl)[C@@H](Cl)[C@@H](Cl)[C@H](Cl)[C@H]1Cl` [LINDANE], for which the “fold change (FC)” value in assay [24] is 2; in assay [25] it was 2.5. Besides, the inhibition entry in assay [26] was “inactive”. Also, in assay [27], the outcome was inactive.

Values taken from ChEMBL document CHEMBL3046343, “Responses of the cabbage seedpod weevil, Ceutorhynchus obstrictus (Marsham) (Coleoptera: Curculionidae), to seed treatments of canola (Brassica napus L.) with the neonicotinoid compounds clothianidin and imidacloprid” (2009).
